From patent US20220330549A1, “USE OF N-BENZYLBENZAMIDE-BASED COMPOUND AS HERBICIDE” (Northwest A&F University, priority 2020, published 2022)

Key:
Assay type in all cases: in vivo
[1] = tested on: green bristlegrass; assay: Herbicidal activity test for indoor pre-emergence soil treatment; set-up: key: level 1-9; higher = more weed remaining vs blank control; settings: 150 g a.i./ha, visual inspection 21 days after treatment
Method in brief: (§1)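 Pre-emergence soil spray per NY/T 1155.3-2006: weed seeds sown in moistened neutral sandy loam (organic content ≤2%), covered with 0.5–2.0 cm soil, then sprayed 24 h later with a water-diluted 10% emulsifiable concentrate at 150 g(a.i.)/ha. Visual rating after 21 days on a 1–9 scale.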

[2] = tested on: Piemarker; assay: as above; set-up: key: level 1-9; higher = more weed remaining vs blank control; settings: 150 g a.i./ha, visual inspection 21 days after treatment
Method in brief: as §1

[3] = tested on: Barnyard grass; assay: as above; set-up: key: level 1-9; higher = more weed remaining vs blank control; settings: 150 g a.i./ha, visual inspection 21 days after treatment
Method in brief: as §1

[4] = tested on: Digitaria sanguinalis; assay: as above; set-up: key: 1-9 levels; higher = more weed remaining vs blank control; settings: 150 g a.i./ha, visual inspection 21 days after treatment
Method in brief: as §1

[5] = tested on: Amaranthus retroflexus; assay: as above; set-up: key: 1-9 levels; higher = more weed remaining vs blank control; settings: 150 g a.i./ha, visual inspection 21 days after treatment
Method in brief: as §1

[6] = tested on: Gramineae; assay: Post-emergence herbicidal activity test in a paddy field; set-up: key: level scale; higher level = more weed left vs blank control; settings: 150 g a.i./ha (penoxsulam control 250 g(a.i.)/h)
Method in brief: (§2)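 Efficacy was visually estimated 15 and 30 days after spraying, grading weed coverage relative to an untreated neighbouring plot (level 2 = 0 to 2.5%, level 9 = 67.6 to 100%). Treatments were 150 g(a.i.)/ha from 10% emulsifiable concentrates applied at the 4-5 leaf rice stage, four repeats of 50 m^2 each.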

[7] = tested on: Broadleaf weed; assay: as above; set-up: key: level scale; higher level = more weed left vs blank control; settings: 150 g a.i./ha (penoxsulam control 250 g(a.i.)/h)
Method in brief: as §2

[8] = tested on: Cyperaceae; assay: as above; set-up: key: level scale; higher level = more weed left vs blank control; settings: 150 g a.i./ha (penoxsulam control 250 g(a.i.)/h)
Method in brief: as §2

[9] = tested on: green bristlegrass; assay: Herbicidal activity test for indoor post-emergence spraying on stems and leaves; set-up: key: grade level by weed remaining vs blank control, e.g. 5 = 10.1-15%; settings: 150 g a.i./ha, visual inspection 21 days after treatment
Method in brief: (§3)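 Run per NY/T 1155.4-2006: weeds sown, grown in greenhouse, then sprayed post-emergence on stems and leaves. Effect scored visually 21 days after treatment on a graded level scale relative to weed in the blank control area.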

[10] = tested on: Humulus scandens; assay: as above; set-up: key: grade level by weed remaining vs blank control, e.g. 5 = 10.1-15%; settings: 150 g a.i./ha, visual inspection 21 days after treatment
Method in brief: as §3

[11] = tested on: Piemarker; assay: as above; set-up: key: grade level by weed remaining vs blank control, e.g. 5 = 10.1-15%; settings: 150 g a.i./ha, visual inspection 21 days after treatment
Method in brief: as §3

[12] = tested on: Digitaria sanguinalis; assay: as above; set-up: key: grade level by weed remaining vs blank control, e.g. 5 = 10.1-15%; settings: 150 g a.i./ha, visual inspection 21 days after treatment
Method in brief: as §3

[13] = tested on: Barnyard grass; assay: as above; set-up: key: grade level by weed remaining vs blank control, e.g. 5 = 10.1-15%; settings: 150 g a.i./ha, visual inspection 21 days after treatment
Method in brief: as §3

[14] = tested on: Amaranthus retroflexus; assay: as above; set-up: key: grade level by weed remaining vs blank control, e.g. 5 = 10.1-15%; settings: 150 g a.i./ha, visual inspection 21 days after treatment
Method in brief: as §3

[15] = tested on: Humulus scandens; assay: Herbicidal activity test for indoor pre-emergence soil treatment; settings: 150 g a.i./ha, visual inspection 21 days after treatment
Method in brief: as §1

[16] = tested on: Acalypha australis; assay: Field test for weed control in a corn field; settings: 150 g a.i./ha, after treatment
Method in brief: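 Post-emergence field trial in a corn field following GB/T 17980.42-2000. Test compounds were formulated as 10% emulsifiable concentrates, diluted in water, and sprayed at 150 g(a.i.)/ha when corn had 2 to 5 leaves, with 4 replicates on 20 m^2 plots. Mesotrione 25% oil dispersion served as the control agent. Weed control was scored on a 1-9 scale.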

[17] = tested on: goosegrass; assay: Field test for weed control in a corn field; settings: 150 g a.i./ha, after treatment
Method in brief: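 Weed control efficacy against goosegrass was tested in a corn field following GB/T 17980.42-2000. Compounds formulated as 10% emulsifiable concentrates were diluted in water and sprayed post-emergence at 150 g(a.i.)/ha when corn had 2 to 5 leaves, with 4 replicates of 20 m^2 plots. Herbicidal activity was rated on a 1-9 scale by damage symptoms and severity.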

[18] = tested on: green bristlegrass; assay: Field test for weed control in a corn field; settings: 150 g a.i./ha, after treatment
Method in brief: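 Post-emergence weed control was tested in a corn field following GB/T 17980.42-2000. When the corn had 2 leaves to 5 leaves after sowing, 10% emulsifiable concentrates diluted in water were sprayed at 150 g(a.i.)/ha on 20 m^2 plots, four replicates per treatment. Effects on green bristlegrass were scored on a 1-9 damage scale relative to the blank control area.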

[19] = tested on: Convolvulus arvensis; assay: Field test for weed control in a corn field; settings: 150 g a.i./ha, after treatment
Method in brief: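 Field trial of weed control against Convolvulus arvensis in corn, run following GB/T 17980.42-2000. Test agents were formulated as 10% emulsifiable concentrates and sprayed in water at 150 g(a.i.)/ha when corn plants had 2 to 5 leaves. Each treatment was replicated 4 times on 20 m^2 plots, and 25% mesotrione oil dispersion served as the control agent.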

[20] = tested on: Digitaria sanguinalis; assay: Field test for weed control in a corn field; settings: 150 g a.i./ha, after treatment
Method in brief: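 Field trial in a corn field following GB/T 17980.42-2000. Test compounds were formulated as 10% emulsifiable concentrates, diluted in water and sprayed post-emergence at 150 g(a.i.)/ha when corn had 2 to 5 leaves, with 4 replicates on 20 m^2 plots. Control of Digitaria sanguinalis was scored on a 1-9 scale based on weed damage relative to the untreated blank area.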

[21] = tested on: Barnyard grass; assay: Field test for weed control in a corn field; settings: 150 g a.i./ha, 30 days after treatment
Method in brief: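 Corn-field efficacy trial following GB/T 17980.42-2000. Test compounds were formulated as 10% emulsifiable concentrates, diluted in water and sprayed post-emergence at 150 g(a.i.)/ha when corn had 2 to 5 leaves. Each treatment was replicated 4 times on 20 m^2 plots. Barnyard grass control was rated on a 1-9 damage scale.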

[22] = tested on: nutgrass flatsedge; assay: Field test for weed control in a corn field; settings: 150 g a.i./ha, after treatment
Method in brief: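 A corn field efficacy trial following GB/T 17980.42-2000 assessed post-emergence control of nutgrass flatsedge. Test compounds were formulated as 10% emulsifiable concentrates, diluted in water, and sprayed at 150 g(a.i.)/ha when the corn had 2 to 5 leaves. Each treatment had 4 replicates on 20 m^2 plots. Herbicidal activity was graded on a 1-9 scale by damage symptoms and severity.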

[23] = tested on: Amaranthus retroflexus; assay: Field test for weed control in a corn field; settings: 150 g a.i./ha, 30 days after treatment
Method in brief: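 Field efficacy trial in a corn field following GB/T 17980.42-2000. Test compounds were formulated as 10% emulsifiable concentrates, diluted in water and sprayed post-emergence when corn had 2 to 5 leaves. Each treatment covered 20 m^2 with 4 replicates. A 25% mesotrione oil dispersion served as control. Damage to Amaranthus retroflexus was rated on a 1-9 scale against untreated blank plots.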

[24] = tested on: Solanum nigrum; assay: Field test for weed control in a corn field; settings: 150 g a.i./ha, 30 days after treatment
Method in brief: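 Post-emergence weed control was tested in a corn field following GB/T 17980.42-2000. Compounds were made into 10% emulsifiable concentrates, diluted in water and sprayed at 150 g(a.i.)/ha when corn had 2 to 5 leaves after sowing, in 20 m^2 plots with 4 replicates. Effects on Solanum nigrum were graded on a 1-9 scale relative to the blank control area.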

[25] = tested on: Portulaca oleracea; assay: Field test for weed control in a corn field; settings: 150 g a.i./ha, after treatment
Method in brief: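 Field efficacy trial in corn following GB/T 17980.42-2000. Test compounds were prepared as 10% emulsifiable concentrates, diluted in water, and sprayed at 150 g(a.i.)/ha when corn had 2 to 5 leaves after sowing. Plots were 20 m^2 with 4 replicates per treatment. Herbicidal activity was scored on a 1-9 scale from weed damage symptoms and severity.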

[26] = tested on: Chenopodium album; assay: Field test for weed control in a corn field; settings: 150 g a.i./ha, after treatment
Method in brief: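 A corn-field efficacy trial following GB/T 17980.42-2000 tested post-emergence control of Chenopodium album. Test compounds formulated as 10% emulsifiable concentrates were diluted in water and sprayed at 150 g(a.i.)/ha when the corn had 2 leaves to 5 leaves, on 20 m^2 plots with 4 replicates. Herbicidal activity was rated on a 1-9 scale by damage symptoms and severity.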

Structure (SMILES)	Herbicidal Activity Green bristlegrass [1]	Herbicidal Activity Piemarker [2]	Herbicidal Activity Barnyard grass [3]	Herbicidal Activity Digitaria sanguinalis [4]	Herbicidal Activity Amaranthus retroflexus [5]	Herbicidal activity 15 days after treatment Gramineae [6]	Herbicidal activity 30 days after treatment Gramineae [6]	Herbicidal activity 15 days after treatment Broadleaf weed [7]	Herbicidal activity 30 days after treatment Broadleaf weed [7]	Herbicidal activity 15 days after treatment Cyperaceae [8]	Herbicidal activity 30 days after treatment Cyperaceae [8]	Herbicidal Activity Green bristlegrass [9]	Herbicidal Activity Humulus scandens [10]	Herbicidal Activity Piemarker [11]	Herbicidal Activity Digitaria sanguinalis [12]	Herbicidal Activity Barnyard grass [13]	Herbicidal Activity Amaranthus retroflexus [14]	Herbicidal Activity Humulus scandens [15]	Post-emergence weed control effect, Acalypha australis [16]	Post-emergence weed control effect, Goose grass [17]	further results
Cc1cccc(C(=O)NCc2cccc(F)c2)n1 [Compound B22]	1	1	1	1	1	1	1	1	1	1	1	1	1	1	1	1	1	2 (equivalent to 0 to 2.5% of the weed in the blank control area)	1	2 (equivalent to 0 to 2.5% of the weed in the blank control area)	Post-emergence weed control effect, Green bristlegrass [18]: 1; Post-emergence weed control effect, Convolvulus arvensis [19]: 1; Post-emergence weed control effect, Digitaria sanguinalis [20]: 2 (equivalent to 0 to 2.5% of the weed in the blank control area); Post-emergence weed control effect, Barnyard grass [21]: 1; Post-emergence weed control effect, Nutgrass flatsedge [22]: 2 (equivalent to 0 to 2.5% of the weed in the blank control area); Post-emergence weed control effect, Amaranthus retroflexus [23]: 1; Post-emergence weed control effect, Solanum nigrum [24]: 2 (equivalent to 0 to 2.5% of the weed in the blank control area); Post-emergence weed control effect, Portulaca oleracea [25]: 1; Post-emergence weed control effect, Chenopodium album [26]: 1
COc1ccc(OC)c(C(=O)NCc2cc(Cl)cc(Cl)c2)c1 [Compound A29]	1	1	1	2 (equivalent to 0 to 2.5% of the weed in the blank control area)	1	2 (equivalent to 0 to 2.5% of the weed in the blank control area)	1	1	1	1	2 (equivalent to 0 to 2.5% of the weed in the blank control area)	1	1	1	1	1	1	2 (equivalent to 0 to 2.5% of the weed in the blank control area)	1	2 (equivalent to 0 to 2.5% of the weed in the blank control area)	Post-emergence weed control effect, Green bristlegrass [18]: 2 (equivalent to 0 to 2.5% of the weed in the blank control area); Post-emergence weed control effect, Convolvulus arvensis [19]: 2 (equivalent to 0 to 2.5% of the weed in the blank control area); Post-emergence weed control effect, Digitaria sanguinalis [20]: 2 (equivalent to 0 to 2.5% of the weed in the blank control area); Post-emergence weed control effect, Barnyard grass [21]: 1; Post-emergence weed control effect, Nutgrass flatsedge [22]: 2 (equivalent to 0 to 2.5% of the weed in the blank control area); Post-emergence weed control effect, Amaranthus retroflexus [23]: 1; Post-emergence weed control effect, Solanum nigrum [24]: 2 (equivalent to 0 to 2.5% of the weed in the blank control area); Post-emergence weed control effect, Portulaca oleracea [25]: 1; Post-emergence weed control effect, Chenopodium album [26]: 1
